Assay results taken from US9174992B2, “Heterobicyclic compounds” (Amgen Inc., priority 2012, dated 2015).

biological target: PDE10A (UniProt Q9Y233); test: PDE10 enzyme inhibition, IMAP TR-FRET assay (Example A, MPDE10A7 Enzyme Activity and Inhibition); format: biochemical; conditions: approximate IC50 value, Table 10
Summary of the method: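 Compounds were preincubated 60 min at room temperature with PDE10A enzyme or tissue homogenate, then fluorescein-labeled cAMP or cGMP was added for 90 min. After stopping with IMAP binding reagents, TR-FRET was read and IC50s were fitted with a four-parameter logistic equation.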

| Structure (SMILES) | IC50 |
| --- | --- |
| CC1(C)C(=O)N(C2CCN(c3ccc4ccccc4n3)CC2)c2ncccc21 [Example 190, 3,3-dimethyl-1-(1-(quinolin-2-yl)piperidin-4-yl)-1H-pyrrolo[2,3-b]pyridin-2(3 H)-one] | 0.695 nM |
| CC1(C)C(=O)N(C2CCN(c3nc4ccc(F)cc4s3)CC2)c2ncccc21 [Example 191, 1-(1-(6-fluorobenzo[d]thiazol-2-yl)piperidin-4-yl)-3,3-dimethyl-1H-pyrrolo[2,3-b]pyridin-2(3 H)-one] | 3.46 nM |
| CC1(C)C(=O)N([C@H]2C[C@H](Nc3ccc4cc(F)ccc4n3)C2)c2nccnc21 [Example 192] | 14.8 nM |
| Cn1c(=O)n([C@H]2C[C@H](Nc3nc4ccccc4o3)C2)c2ncc(F)cc21 [Example 196, 3-(Trans-3-(benzo[d]oxazol-2-ylamino)cyclobutyl)-6-fluoro-1-methyl-1H-imidazo[4,5-b]pyridin-2(3 H)-one] | 4.2 nM |
| CC1(C)C(=O)N(C2CCN(c3nc4ccccc4s3)CC2)c2nccnc21 [Example 198, 5-(1-(benzo[d]thiazol-2-yl)piperidin-4-yl)-7,7-dimethyl-5H-pyrrolo[2,3-b]pyrazin-6(7H)-one] | 2.36 nM |
| CC1(C)C(=O)N(C2CCN(c3ccc4cc(F)ccc4n3)CC2)c2nccnc21 [Example 199, 5-(1-(6-fluoroquinolin-2-yl)piperidin-4-yl)-7,7-dimethyl-5H-pyrrolo[2,3-b]pyrazin-6(7H)-one] | 15.1 nM |
| CC1(C)C(=O)N(C2CCN(c3ncc4ccc(Cl)cc4n3)CC2)c2nccnc21 [Example 200, 5-(1-(7-chloroquinazolin-2-yl)piperidin-4-yl)-7,7-dimethyl-5H-pyrrolo[2,3-b]pyrazin-6(7H)-one] | 86.3 nM |
| Cc1csc(N[C@H]2C[C@H](N3C(=O)C(C)(C)c4cccnc43)C2)n1 [Example 203, 3,3-dimethyl-1-(trans-3-((4-methylthiazol-2-yl)amino)cyclobutyl)-1H-pyrrolo[2,3-b]pyridin-2(3H)-one] | 109 nM |
| CC1(C)C(=O)N([C@H]2C[C@H](Nc3ncc(-c4ccccc4)s3)C2)c2ncccc21 [Example 204, 3,3-dimethyl-1-(trans-3-((5-phenylthiazol-2-yl)amino)cyclobutyl)-1H-pyrrolo[2,3-b]pyridin-2(3H)-one] | 2910 nM |
| Cn1c(=O)n([C@H]2C[C@H](Nc3ncc4ccccc4n3)C2)c2ncc(F)cc21 [Example 206, 6-fluoro-1-methyl-3-(trans-3-(quinazolin-2-ylamino)cyclobutyl)-1H-imidazo[4,5-b]pyridin-2(3H)-one] | 7.65 nM |
| CC1(C)C(=O)N([C@H]2C[C@H](Nc3ccc(Br)cn3)C2)c2nccnc21 [Example 207, 5-(trans-3-((5-bromopyridin-2-yl)amino)cyclobutyl)-7,7-dimethyl-5H-pyrrolo[2,3-b]pyrazin-6(7 H)-one] | 2.39 nM |
| O=C1N([C@H]2C[C@H](Nc3nc4ccccc4s3)C2)c2ncc(F)cc2C1(F)F [Example 208, 1-(trans-3-(benzo[d]thiazol-2-ylamino)cyclobutyl)-3,3,5-trifluoro-1H-pyrrolo[2,3-b]pyridin-2(3H)-one] | 0.626 nM |
| O=C1N([C@H]2C[C@H](Nc3nc4ccccc4s3)C2)c2ncccc2C1(F)F [Example 212, 1-(trans-3-(benzo[d]thiazol-2-ylamino)cyclobutyl)-3,3-difluoro-1-H-pyrrolo[2,3-b]pyridin-2-(3H)-one] | 0.449 nM |
| CC1(C)C(=O)N([C@H]2C[C@@H](NC(=O)c3nc4ccccc4[nH]3)C2)c2nccnc21 [Example 217, N-(cis-3-(7,7-dimethyl-6-oxo-6,7-dihydro-5H-pyrrolo[2,3-b]pyrazin-5-yl)cyclobutyl)-1H-benzo[d]imidazolE-2-carboxamide] | 38.3 nM |
| O=c1n(C2CC2)c2nccnc2n1[C@H]1C[C@H](Nc2ncc3ccccc3n2)C1 [Example 219, 1-cyclopropyl-3-(trans-3-(quinazolin-2-ylamino)cyclobutyl)-1H-imidazo[4,5-b]pyrazin-2(3H)-one] | 554 nM |

The remaining compounds from weak to strong by IC50, led by results:

| IC50 | Structure (SMILES) |
| --- | --- |
| 1410 nM | Cc1ccc(N[C@H]2CC[C@@H](N3C(=O)C(C)(C)c4nccnc43)CC2)nc1 [Example 218, 7,7-dimethyl-5-(cis-4-((5-methylpyridin-2-yl)amino)cyclohexyl)-5H-pyrrolo[2,3-b]pyrazin-6(7H)-one] |
| 68.8 nM | CC1(C)C(=O)N(C2CCN(c3nc4ccc(C(F)(F)F)cc4s3)CC2)c2nccnc21 [Example 202, 7,7-dimethyl-5-(1-(6-(trifluoromethyl)benzo[d]thiazol-2-yl)piperidin-4-yl)-5H-pyrrolo[2,3-b]pyrazin-6(7H)-one] |
| 57.7 nM | COc1ccc2nc(N[C@H]3C[C@H](n4c(=O)n(C5CC5)c5nccnc54)C3)sc2c1 [Example 224, 1-cyclopropyl-3-(trans-3-((6-methoxybenzo[d]thiazol-2-yl)amino)cyclobutyl)-1H-imidazo[4,5-b]pyrazin-2(3 H)-one] |
| 18.4 nM | O=c1n(C2CC2)c2nccnc2n1[C@H]1C[C@H](Nc2ccc3cccnc3n2)C1 [Example 223, 1-(trans-3-((1,8-naphthyridin-2-yl)amino)cyclobutyl)-3-cyclopropyl-1H-imidazo[4,5-b]pyrazin-2(3 H)-one] |
| 16.9 nM | Cn1c(=O)n([C@H]2C[C@@H](Nc3nc4ccccc4s3)C2)c2nccnc21 [Example 216, 1-(cis-3-(benzo[d]thiazol-2-ylamino)cyclobutyl)-3-methyl-1H-imidazo[4,5-b]pyrazin-2(3H)-one] |
| 15.1 nM | CC1(C)C(=O)N(C2CCN(c3ccc4cc(F)ccc4n3)CC2)c2ncccc21 [Example 194, 1-(1-(6-fluoroquinolin-2-yl)piperidin-4-yl)-3,3-dimethyl-1H-pyrrolo[2,3-b]pyridin-2(3 H)-one] |
| 13.2 nM | Cc1cnc(N[C@H]2C[C@H](N3C(=O)C(C)(C)c4cccnc43)C2)s1 [Example 205, 3,3-dimethyl-1-(trans-3-((5-methylthiazol-2-yl)amino)cyclobutyl)-1H-pyrrolo[2,3-b]pyridin-2(3H)-one] |
| 10.8 nM | COc1ccc2nc(N[C@H]3C[C@H](n4c(=O)n(C5CC5)c5nccnc54)C3)sc2c1 [Example 225, 1-cyclopropyl-3-(trans-3-((6-methoxy-1,3-benzothiazol-2-yl)amino)cyclobutyl)-1,3-dihydro-2H-imidazo[4,5-b]pyrazin-2-one] |
| 7.61 nM | O=c1n(C2CC2)c2nccnc2n1[C@H]1C[C@H](Nc2nc3cc(F)ccc3s2)C1 [Example 222, 1-cyclopropyl-3-(trans-3-((5-fluorobenzo[d]thiazol-2-yl)amino)cyclobutyl)-1H-imidazo[4,5-b]pyrazin-2(3 H)-one] |
| 3.48 nM | CC1(C)C(=O)N(C2CCN(c3ncc4cc(F)ccc4n3)CC2)c2nccnc21 [Example 201, 5-(1-(6-fluoroquinazolin-2-yl)piperidin-4-yl)-7,7-dimethyl-5H-pyrrolo[2,3-b]pyrazin-6(7H)-one] |
| 2.87 nM | CC1(C)C(=O)N([C@H]2C[C@H](Nc3nc4ccccc4o3)C2)c2nccnc21 [Example 214, 5-(trans-3-(benzo[d]oxazol-2-ylamino)cyclobutyl)-7,7-dimethyl-5H-pyrrolo[2,3-b]pyrazin-6(7H)-one] |
| 2.77 nM | O=c1n(C2CC2)c2nccnc2n1[C@H]1C[C@H](Nc2ccc(Cl)cn2)C1 [Example 221, 1-(trans-3-((5-chloropyridin-2-yl)amino)cyclobutyl)-3-cyclopropyl-1H-imidazo[4,5-b]pyrazin-2(3H)-one] |
| 2.35 nM | O=c1n(C2CC2)c2nccnc2n1[C@H]1C[C@H](Nc2nc3ccccc3o2)C1 [Example 220, 1-(trans-3-(benzo[d]oxazol-2-ylamino)cyclobutyl)-3-cyclopropyl-1H-imidazo[4,5-b]pyrazin-2(3H)-one] |
| 2.1 nM | CC1(C)C(=O)N(C2CCN(c3ccc4ccc(F)cc4n3)CC2)c2ncccc21 [Example 193, 1-(1-(7-fluoroquinolin-2-yl)piperidin-4-yl)-3,3-dimethyl-1H-pyrrolo[2,3-b]pyridin-2(3 H)-one] |
| 1.99 nM | CC1(C)C(=O)N(C2CCN(c3nc4ccccc4s3)CC2)c2ncccc21 [Example 189, 1-(1-(benzo[d]thiazol-2-yl)piperidin-4-yl)-3,3-dimethyl-1H-pyrrolo[2,3-b]pyridin-2(3 H)-one] |
| 1.77 nM | CC1(C)C(=O)N([C@H]2C[C@H](Oc3nc4ccccc4s3)C2)c2nccnc21 [Example 197, 5-(trans-3-(benzo[d]thiazol-2-yloxy)cyclobutyl)-7,7-dimethyl-5H-pyrrolo[2,3-b]pyrazin-6(7H)-one] |
| 0.978 nM | CC1(C)C(=O)N([C@H]2C[C@@H](Nc3nc4ccccc4s3)C2)c2nccnc21 [Example 215, 5-(cis-3-(benzo[d]thiazol-2-ylamino)cyclobutyl)-7,7-dimethyl-5H-pyrrolo[2,3-b]pyrazin-6(7H)-one] |
| 0.938 nM | CC1(C)C(=O)Nc2nc([C@H]3C[C@H](Nc4ccc5ccc(F)cc5n4)C3)cnc21 [Example 195, 3-(trans-3-((7-fluoroquinolin-2-yl)amino)cyclobutyl)-7,7-dimethyl-5H-pyrrolo[2,3-b]pyrazin-6(7 H)-one] |
| 0.892 nM | Cn1c(=O)n([C@H]2C[C@H](Nc3nc4cc(F)ccc4s3)C2)c2ncc(F)cc21 [Example 210, 6-fluoro-3-(trans-3-((5-fluorobenzo[d]thiazol-2-yl)amino)cyclobutyl)-1-methyl-1H-imidazo[4,5-b]pyridin-2(3 H)-one] |
| 0.88 nM | Cn1c(=O)n([C@H]2C[C@H](Nc3nc4ccc(F)cc4s3)C2)c2ncc(F)cc21 [Example 209, 6-fluoro-3-(trans-3-((6-fluorobenzo[d]thiazol-2-yl)amino)cyclobutyl)-1-methyl-1H-imidazo[4,5-b]pyridin-2(3H)-one] |
| 0.111 nM | O=C1N([C@H]2C[C@H](Nc3nc4ccccc4s3)C2)c2ncc(Cl)cc2C1(F)F [Example 211, 1-(trans-3-(benzo[d]thiazol-2-ylamino)cyclobutyl)-5-chloro-3,3-difluoro-1H-pyrrolo[2,3-b]pyridin-2(3 H)-one] |
